Like-named read-outs stand apart in the source and are kept apart here. One block for each molecule: values may come before it.
Tests used:
[1] = biological target: T1, human β1-adrenoceptor polymorphic variant Gly49/Gly389 (Homo sapiens, UniProt P08588, S49G); test: 3H-cAMP accumulation, Gly49/Gly389; format: cell-based; set-up: expressed in transfected cells; pcDNA3.1); details: for Emax: read-out: % isop (% isoprenaline maximal response); for EC50 / Log EC50 Site 2: biphasic cAMP response; for EC50: read-out: Log EC50 Site 1 (converted)
T1 sequence (P08588 whole entry S49G): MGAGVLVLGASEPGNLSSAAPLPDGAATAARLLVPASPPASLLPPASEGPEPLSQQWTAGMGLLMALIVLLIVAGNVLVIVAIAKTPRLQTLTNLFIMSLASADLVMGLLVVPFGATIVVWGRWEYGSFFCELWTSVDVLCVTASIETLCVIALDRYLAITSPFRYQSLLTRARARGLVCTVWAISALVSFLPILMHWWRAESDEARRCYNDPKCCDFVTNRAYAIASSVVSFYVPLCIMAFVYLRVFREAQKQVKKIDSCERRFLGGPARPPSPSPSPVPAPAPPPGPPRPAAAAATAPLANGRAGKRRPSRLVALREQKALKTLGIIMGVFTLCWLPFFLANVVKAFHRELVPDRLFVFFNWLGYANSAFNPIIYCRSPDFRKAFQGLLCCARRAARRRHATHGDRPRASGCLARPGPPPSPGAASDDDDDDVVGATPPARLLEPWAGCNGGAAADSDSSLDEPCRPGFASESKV
Experimental: (§1) Cells were grown to confluence in clear plastic tissue culture treated 24-well plates and ^3H-cAMP accumulation performed as previously described. Briefly, cells pre-labelled with ^3H-adenine by incubation for 2 hours with 2 µCi/ml ^3H-adenine in serum-free media (0.5 ml per well). The cells were washed, then 1 ml serum-free media containing 1 mM IBMX (3-isobutyl-1-methylxanthine) was added to each well and the cells incubated for 15 minutes. Agonists (in 10 µl serum-free media) were added to each well and the plates incubated for 5 hours in order to maximise the responses. The assay was terminated by adding 50 µl concentrated HCl per well, the plates frozen, thawed and ^3H-cAMP separated from other ^3H-nucleotides by sequential Dowex and alumina column chromatography. […] Where pertussis toxin (PTX) was used, cells were incubated in the 24 well plates with PTX at 100 ng/ml for 24 hours before experimentation.
(§2) The affinities of antagonists (KD values, Table 3) were calculated from the shift of the agonist concentration response curve in the presence of a fixed concentration of antagonist using equation 5: [drawing 5] (5) where DR (dose ratio) is the ratio of the agonist concentration required to stimulate an identical response in the presence and absence of a fixed concentration of antagonist [B].

[2] = biological target: T2, human wildtype β1-adrenoceptor (Ser49/Gly389) (Homo sapiens, UniProt P08588); test: 3H-cAMP accumulation, wildtype; format: cell-based; set-up: expressed in transfected cells; details: for Emax: read-out: % isop (% isoprenaline maximal response); for Log EC50 Site 2 / EC50: biphasic cAMP response; for EC50: read-out: Log EC50 Site 1 (converted)
T2 sequence (P08588 whole entry): as the sequence (P08588 whole entry S49G) above, with G49S counted along it
Experimental: as §1, §2

[3] = biological target: T3, human β1-adrenoceptor polymorphic variant Ser49/Arg389 (Homo sapiens, UniProt P08588, G389R); test: 3H-cAMP accumulation, Ser49/Arg389; format: cell-based; set-up: expressed in transfected cells; pcDNA3.1); details: for Emax: read-out: % isop (% isoprenaline maximal response); for Log EC50 Site 2 / EC50: biphasic cAMP response; for EC50: read-out: Log EC50 Site 1 (converted)
T3 sequence (P08588 whole entry G389R): as the sequence (P08588 whole entry S49G) above, with G49S, G389R counted along it
Experimental: as §1, §2

[4] = tested on: endogenous P2y2 receptors; test: 3H-inositol phosphate accumulation, positive controls; format: cell-based, Chinese Hamster; details: 100 µM
Experimental: Cells were grown to confluence in clear plastic tissue culture treated 24-well plates containing ^3H-myo-inositol (4 µCi/ml). Cells were washed then incubated for 30 minutes in 1 ml of serum free media containing 20 mM LiCl (37°C, 5% CO2). Agonists (in 10 µl) were then added and the incubation continued for 1 hour. All reagents were then removed and 1 ml of cold (−20°C) methanol/0.12M HCl (1∶1, v/v) added to each well. […] Total ^3H-inositol phosphate levels were determined by liquid scintillation counting. 100 µM ATP and 100 µM UTP was used as positive controls.

[5] = biological target: T1, human β1-adrenoceptor polymorphic variant Gly49/Gly389; test: cell-based; details: Log KD
Experimental: (§3) The cells were washed twice with 200 µl 4°C phosphate buffered saline, 100 µl Microscint 20 was added to each well, and the plates counted on a Topcount at 21°C for 2 minutes per well.
(§4) All data points were performed in triplicate and each 96-well plate also contained 6 determinations of total and non-specific binding.

[6] = biological target: T2, human wildtype β1-adrenoceptor (Ser49/Gly389); test: cell-based; details: Log KD
Experimental: as §3, §4

[7] = biological target: T3, human β1-adrenoceptor polymorphic variant Ser49/Arg389; test: cell-based; details: Log KD
Experimental: as §3, §4

[8] = biological target: T4, human adenosine A1 receptor (Homo sapiens, UniProt P30542); test: 3H-cAMP accumulation in CHO-A1 cells, pertussis toxin control; format: cell-based; details: 100 ng/ml for 24 hours, CHO cells expressing the human adenosine A1 receptor
T4 construct: expressed in transfected cells
T4 sequence (P30542 1-326): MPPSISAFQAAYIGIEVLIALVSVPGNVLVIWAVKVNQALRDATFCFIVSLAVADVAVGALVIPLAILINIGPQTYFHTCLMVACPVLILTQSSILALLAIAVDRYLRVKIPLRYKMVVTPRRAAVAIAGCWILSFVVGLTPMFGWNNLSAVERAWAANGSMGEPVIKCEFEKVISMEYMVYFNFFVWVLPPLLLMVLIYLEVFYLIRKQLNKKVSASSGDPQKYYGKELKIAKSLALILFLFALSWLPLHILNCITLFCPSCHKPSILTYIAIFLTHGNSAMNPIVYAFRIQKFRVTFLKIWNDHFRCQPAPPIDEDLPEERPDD

[9] = tested on: ERK1/2 MAPKinase activation; test: Alphascreen Surefire MAPKinase (pERK1/2) assay, positive control; format: cell-based, Chinese Hamster; details: 1 µM, 30 minutes
Experimental: Extracellular-signal-regulated kinases ERK1/2 activation was measured using a Surefire Alphascreen pERK1/2 kit as per manufacturer's instructions. Briefly, cells were grown to confluence in clear plastic tissue culture treated 96-well plates then serum starved by incubation in serum-free media for 24 hours before experimentation. Agonist in 20 µl was added to the well (1∶5 dilution in wells) and incubated for 5–60 minutes (37°C, 5% CO2). Reagents were then removed and 20 µl lysis buffer added to each well. Plates were frozen at −20°C overnight, thawed, and the assay then conducted as per manufacturer's instructions. After 2 hours in the dark, the plates were read on an Envision plate reader using standard Alphascreen settings. 1 µM phorbol ester was used as the positive control.

[10] = 3H-cAMP accumulation, main stable WT Ser49/Gly389 cell line (WT original), maximum defined by 10 µM isoprenaline
[11] = cells expressing Gly49/Gly389 receptor
[12] = cells expressing Ser49/Arg389 β1-receptors
[13] = cells expressing wildtype Ser49/Gly389 receptor

- 3H-inositol phosphate accumulation response [4, 11]: 2.77±0.40 fold over basal
- 3H-inositol phosphate accumulation response [4, 12]: 2.96±0.28 fold over basal
- 3H-inositol phosphate accumulation response [4, 13]: 2.18±0.17 fold over basal
Molecule: Nc1ncnc2c1ncn2[C@@H]1O[C@H](COP(=O)(O)OP(=O)(O)OP(=O)(O)O)[C@@H](O)[C@H]1O [ATP]

- Kd ([5]; competition with 3H-CGP 12177, Gly49/Gly389 transiently transfected populations): 1.58 nM
- Kd ([5]; competition with 3H-CGP 12177, additional stable Gly49/Gly389 cell line V87): 0.427 nM
- Kd ([5]; competition with 3H-CGP 12177, whole cells, main stable CHO cell line Gly49/Gly389): 0.339 nM
- Kd ([6]; competition with 3H-CGP 12177, WT transiently transfected populations): 1.32 nM
- Kd ([6]; competition with 3H-CGP 12177, additional stable WT cell line T3): 1.45 nM
- Kd ([6]; competition with 3H-CGP 12177, additional stable WT cell line T88): 0.355 nM
- Kd ([6]; competition with 3H-CGP 12177, whole cells, main stable CHO cell line WT (Ser49/Gly389)): 0.275 nM
- % isoprenaline ([1]; % maximum isoprenaline response for the overall biphasic response, main Gly49/Gly389 cell line): 25.7±0.8%
- % Site 1 ([1]; % of the response occurring at site 1, main Gly49/Gly389 cell line): 51.5±2.4%
- % Site 1 ([1]; Gly49/Gly389 Cell line V6): 54.0 ± 2.7%
- % Site 1 ([1]; Gly49/Gly389 Cell line V87): 69.3 ± 7.5%
- EC50 ([1]; Gly49/Gly389 Cell line V6): 0.282 nM
- Log EC50 Site 2 ([1]; Gly49/Gly389 Cell line V87): -7.34 ± 0.23
- EC50 ([1]; Gly49/Gly389 Cell line V87): 0.309 nM
- Log EC50 Site 2 ([1]; main Gly49/Gly389 cell line): −7.45±0.11
- EC50 ([1]; main Gly49/Gly389 cell line): 0.417 nM
- % isoprenaline ([1]; overall biphasic response, Gly49/Gly389 Cell line V6): 27.5 ± 1.0%
- % isoprenaline ([1]; overall biphasic response, Gly49/Gly389 Cell line V87): 22.8 ± 1.1%
- % isoprenaline ([2]; % maximum isoprenaline response for the overall biphasic response, main WT Ser49/Gly389 cell line): 24.6±4.1%
- % Site 1 ([2]; % of the response occurring at site 1, main WT Ser49/Gly389 cell line): 59.8±2.8%
- % Site 1 ([2]; WT cell line T3): 75.6 ± 4.5%
- % Site 1 ([2]; WT cell line T88): 48.0 ± 4.2%
- Log EC50 Site 2 ([2]; WT cell line T3): -7.09 ± 0.15
- EC50 ([2]; WT cell line T3): 0.708 nM
- Log EC50 Site 2 ([2]; WT cell line T88): -7.46 ± 0.09
- EC50 ([2]; WT cell line T88): 0.234 nM
- Log EC50 Site 2 ([2]; main WT Ser49/Gly389 cell line): −7.53±0.05
- EC50 ([2]; main WT Ser49/Gly389 cell line): 0.347 nM
- % isoprenaline ([2]; overall biphasic response, WT cell line T3): 43.4 ± 2.0%
- % isoprenaline ([2]; overall biphasic response, WT cell line T88): 23.6 ± 2.4%
- Kd ([7]; competition with 3H-CGP 12177, Ser49/Arg389 transiently transfected populations): 1.82 nM
- Kd ([7]; competition with 3H-CGP 12177, additional stable Ser49/Arg389 cell line W81): 0.275 nM
- Kd ([7]; competition with 3H-CGP 12177, additional stable Ser49/Arg389 cell line W93): 0.646 nM
- Kd ([7]; competition with 3H-CGP 12177, whole cells, main stable CHO cell line Ser49/Arg389): 0.347 nM
- % isoprenaline ([3]; % maximum isoprenaline response for the overall biphasic response, main Ser49/Arg389 cell line): 53.6±1.2%
- % Site 1 ([3]; % of the response occurring at site 1, main Ser49/Arg389 cell line): 80.4±2.6%
- % Site 1 ([3]; Ser49/Arg389 Cell line W81): 47.6 ± 3.3%
- % Site 1 ([3]; Ser49/Arg389 Cell line W93): 51.5 ± 4.0%
- Log EC50 Site 2 ([3]; Ser49/Arg389 Cell line W81): -6.22 ± 0.15
- EC50 ([3]; Ser49/Arg389 Cell line W81): 0.724 nM
- Log EC50 Site 2 ([3]; Ser49/Arg389 Cell line W93): -7.50 ± 0.07
- EC50 ([3]; Ser49/Arg389 Cell line W93): 0.589 nM
- Log EC50 Site 2 ([3]; main Ser49/Arg389 cell line): −6.98±0.19
- EC50 ([3]; main Ser49/Arg389 cell line): 0.447 nM
- % isoprenaline ([3]; overall biphasic response, Ser49/Arg389 Cell line W81): 34.8 ± 2.0%
- % isoprenaline ([3]; overall biphasic response, Ser49/Arg389 Cell line W93): 32.8 ± 1.1%
Molecule: CC(C)(Cc1c[nH]c2ccccc12)NCC(O)COc1ccccc1C#N (stereo not shown) [Bucindolol]

- Emax ([1]; 3H-cAMP accumulation, main stable Gly49/Gly389 cell line (original), maximum defined by 10 µM isoprenaline): 0%
- Emax [2, 10]: 0%
- Emax ([3]; 3H-cAMP accumulation, main stable Ser49/Arg389 cell line (original), maximum defined by 10 µM isoprenaline): 1.3 ± 0.2%
Molecule: CC(C)NCC(O)COc1ccc(CC(N)=O)cc1 (stereo not shown) [Atenolol]

More lines, now with the values behind:

Molecule: NC[C@H](O)c1ccc(O)c(O)c1 [Noradrenaline]
- Emax [1]: 99.1 ± 3.7%
- % isop (% isoprenaline maximal response) [2, 10]: full agonists
- Emax [2]: 95.5 ± 2%
- Emax [3]: 96 ± 3%

Molecule: O=c1ccn([C@@H]2O[C@H](COP(=O)(O)OP(=O)(O)OP(=O)(O)O)[C@@H](O)[C@H]2O)c(=O)[nH]1 [UTP]
- 3H-inositol phosphate accumulation response [4, 11]: 2.32±0.29 fold over basal
- 3H-inositol phosphate accumulation response [4, 12]: 2.63±0.40 fold over basal
- 3H-inositol phosphate accumulation response [4, 13]: 1.87±0.11 fold over basal

Molecule: CNC[C@H](O)c1ccc(O)c(O)c1 [Adrenaline]
- Emax [1]: 95.9 ± 3.2%
- % isop (% isoprenaline maximal response) [2, 10]: full agonists
- Emax [2]: 96.4 ± 2.1%
- Emax [3]: 91.6 ± 2.2%

Molecule: pertussis toxin (PTX)
- Effect of pre-incubation on Gi-coupled inhibition of 3H-cAMP accumulation in response to cyclopentyladenosine (CPA) [8]: completely inhibited
- Effect of pre-incubation on the cimaterol or CGP 12177 3H-cAMP responses ([1]; 100 ng/ml for 24 hours, Gly49/Gly389 receptor): no effect
- Effect of pre-incubation on the cimaterol or CGP 12177 3H-cAMP responses ([2]; 100 ng/ml for 24 hours, WT receptor): no effect
- Effect of pre-incubation on the cimaterol or CGP 12177 3H-cAMP responses ([3]; 100 ng/ml for 24 hours, Ser49/Arg389 receptor): no effect

Molecule: CCCCCCCCCCCCCC(=O)O[C@@H]1[C@@H](C)[C@@]2(O)[C@@H](C=C(CO)C[C@]3(O)C(=O)C(C)=C[C@@H]23)[C@@H]2C(C)(C)[C@]12OC(C)=O [phorbol ester]
- MAPKinase maximum stimulation ([9]; Gly49/Gly389 receptor cells): 12.6±3.8 fold over basal
- MAPKinase maximum stimulation ([9]; Ser49/Arg389 receptor cells): 7.4±1.4 fold over basal
- MAPKinase maximum stimulation ([9]; wildtype receptor cells): 11.9±1.6 fold over basal
